PubChem BioAssay AID248 (DTP/NCI, 2004)
Several values for one entry are separate records, joined by “and”; a condition that tells them apart may be missing. Identical values can stand only once. Toxic doses and inconclusive results are not listed.

Test system: L1210 leukemia ip in BDF1 mice, survival T/C
Assay: NCI In Vivo Anticancer Drug Screen. Data for tumor model L1210 Leukemia (intraperitoneal) in B6D2F1 (BDF1) mice
Conditions: endpoint: mean survival time, higher = longer survival
Summary of the method: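 In this screen, tumor-bearing mice given compound are compared to those given vehicle, and their survival values are reported as a treated-to-control quotient.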

[1] = dose: 100.0 mg/kg/injection, schedule: Q01DX001 (ip), vehicle: saline
[2] = dose: 200.0 mg/kg/injection, schedule: Q01DX001 (ip), vehicle: saline
[3] = dose: 400.0 mg/kg/injection, schedule: Q01DX001 (ip), vehicle: saline
[4] = dose: 100.0 mg/kg/injection, schedule: Q04DX003 (ip), vehicle: saline with Tween-80
[5] = dose: 200.0 mg/kg/injection, schedule: Q04DX003 (ip), vehicle: saline with Tween-80
[6] = dose: 400.0 mg/kg/injection, schedule: Q04DX003 (ip), vehicle: saline with Tween-80
[7] = dose: 100.0 mg/kg/injection, schedule: Q04DX003 (ip), vehicle: saline
[8] = dose: 200.0 mg/kg/injection, schedule: Q04DX003 (ip), vehicle: saline
[9] = dose: 400.0 mg/kg/injection, schedule: Q04DX003 (ip), vehicle: saline
[10] = dose: 100.0 mg/kg/injection, schedule: Q01DX009 (ip), vehicle: Klucel (hydroxypropylcellulose) (HPC)
[11] = dose: 200.0 mg/kg/injection, schedule: Q01DX009 (ip), vehicle: Klucel (hydroxypropylcellulose) (HPC)
[12] = dose: 400.0 mg/kg/injection, schedule: Q01DX009 (ip), vehicle: Klucel (hydroxypropylcellulose) (HPC)
[13] = dose: 25.0 mg/kg/injection, schedule: Q01DX009 (ip), vehicle: saline
[14] = dose: 50.0 mg/kg/injection, schedule: Q01DX009 (ip), vehicle: saline
[15] = dose: 200.0 mg/kg/injection, schedule: Q01DX009 (ip), vehicle: saline with Tween-80
[16] = dose: 400.0 mg/kg/injection, schedule: Q01DX009 (ip), vehicle: saline with Tween-80
[17] = dose: 200.0 mg/kg/injection, schedule: Q04DX003 (ip), vehicle: Klucel (hydroxypropylcellulose) (HPC)
[18] = dose: 400.0 mg/kg/injection, schedule: Q04DX003 (ip), vehicle: Klucel (hydroxypropylcellulose) (HPC)

CC1=CC(C)(C)NC(=S)N1c1cccc([N+](=O)[O-])c1
T/C (dose: 224.0 mg/kg/injection, schedule: Q01DX Z (ip), vehicle: methylcellulose (MC)): 88 % of control
T/C (dose: 334.0 mg/kg/injection, schedule: Q01DX Z (ip), vehicle: methylcellulose (MC)): 89 % of control
T/C (dose: 500.0 mg/kg/injection, schedule: Q01DX Z (ip), vehicle: methylcellulose (MC)): 94 % of control

O=[N+]([O-])c1ccc(N/N=C2\CCCc3c2ccc2ccccc32)c([N+](=O)[O-])c1
T/C [1]: 97 % of control
T/C [2]: 92 % of control
T/C [3]: 103 % of control

COC(=O)C(C#N)Cc1ccccc1Cl (stereo not given)
T/C [4]: 90 % of control
T/C [5]: 96 % of control
T/C [6]: 98 % of control

COC(OC)c1cccc([N+](=O)[O-])c1
T/C (dose: 50.0 mg/kg/injection, schedule: Q01DX001 (ip), vehicle: saline): 111 % of control
T/C [1]: 107 % of control
T/C [2]: 102 % of control
T/C [3]: 100 % of control

CCOC(CN=CN(C)C)OCC
T/C [7]: 94 % of control
T/C [8]: 105 % of control
T/C [9]: 97 % of control

COc1ccc(NC(=O)C(Br)C(Br)c2ccccc2)c(Cl)c1 (stereo not given)
T/C [10]: 102 % of control
T/C [11]: 97 % of control
T/C [12]: 96 % of control

CNC(=O)C1NCCc2cc(OC)c(OC)cc21 (stereo not given)
T/C [1]: 97 % of control
T/C [2]: 95 % of control
T/C [3]: 91 % of control

CCCCCCCCCCCCNC(=O)C[n+]1cccc(C(=O)N(C)C)c1
T/C (dose: 5.0 mg/kg/injection, schedule: Q04DX003 (ip), vehicle: saline): 93 % of control
T/C (dose: 10.0 mg/kg/injection, schedule: Q04DX003 (ip), vehicle: saline): 96 % of control
T/C (dose: 20.0 mg/kg/injection, schedule: Q04DX003 (ip), vehicle: saline): 93 % of control

CN1C(=O)N(C)C(=O)C(O)(C2(O)C(=O)N(C)C(=O)N(C)C2=O)C1=O
T/C (dose: 9.38 mg/kg/injection, schedule: Q01DX001 (ip), vehicle: other): 94 % of control
T/C (dose: 18.75 mg/kg/injection, schedule: Q01DX001 (ip), vehicle: other): 94 % of control
T/C (dose: 37.5 mg/kg/injection, schedule: Q01DX001 (ip), vehicle: other): 101 % of control

[Cl][Sn]([Cl])([c]1ccccc1)[c]1ccccc1.c1ccncc1
T/C [13]: 111 % of control
T/C [14]: 114 % of control
T/C (dose: 100.0 mg/kg/injection, schedule: Q01DX009 (ip), vehicle: saline): 96 % of control

CS/C(N)=N\[N+](=O)[O-]
T/C (dose: 50.0 mg/kg/injection, schedule: Q01DX009 (ip), vehicle: Klucel (hydroxypropylcellulose) (HPC)): 89 % of control
T/C [10]: 110 % of control
T/C [11]: 114 % of control

CNC(N)=S
T/C [7]: 99 % of control
T/C [8]: 94 % of control
T/C [9]: 97 % of control

CCN(CC)CC(=O)NCC(CCN1CCCCC1)(CCN1CCCCC1)c1cccc2ccccc12
T/C [13]: 96 % of control
T/C [14]: 104 % of control
T/C [7]: 110 % of control

COC(=O)C1(C)COP(=O)(O)OC1 (stereo not given)
T/C [1]: 91 % of control and 103 % of control
T/C [2]: 89 % of control and 100 % of control
T/C [3]: 97 % of control

O=C(O)C1CCC=CCC1
T/C (dose: 50.0 mg/kg/injection, schedule: Q01DX009 (ip), vehicle: other): 91 % of control
T/C (dose: 100.0 mg/kg/injection, schedule: Q01DX009 (ip), vehicle: other): 96 % of control
T/C (dose: 200.0 mg/kg/injection, schedule: Q01DX009 (ip), vehicle: other): 98 % of control

O=S(=O)(NCCBr)c1ccccc1
T/C (dose: 75.0 mg/kg/injection, schedule: Q01DX001 (ip), vehicle: carboxymethylcellulose (CMC)): 101 % of control
T/C (dose: 150.0 mg/kg/injection, schedule: Q01DX001 (ip), vehicle: carboxymethylcellulose (CMC)): 114 % of control
T/C (dose: 300.0 mg/kg/injection, schedule: Q01DX001 (ip), vehicle: carboxymethylcellulose (CMC)): 108 % of control

Cc1ccc(S(=O)(=O)N/N=C/c2ccc(Cl)s2)cc1
T/C (dose: 100.0 mg/kg/injection, schedule: Q01DX009 (ip), vehicle: saline with Tween-80): 95 % of control
T/C [15]: 97 % of control
T/C [16]: 92 % of control

CCOC(=O)C(C(=O)OCC)C(C)(C)Cc1ccccc1
T/C [10]: 92 % of control
T/C [11]: 100 % of control
T/C [17]: 96 % of control
T/C [12]: 93 % of control
T/C [18]: 93 % of control

O=NN(CCCl)C(=O)Nc1ccc(SCC(=O)O)cc1
T/C (dose: 5.0 mg/kg/injection, schedule: Q01DX001 (ip), vehicle: carboxymethylcellulose (CMC)): 117 % of control
T/C (dose: 18.0 mg/kg/injection, schedule: Q01DX001 (ip), vehicle: carboxymethylcellulose (CMC)): 161 % of control
T/C (dose: 26.0 mg/kg/injection, schedule: Q01DX001 (ip), vehicle: carboxymethylcellulose (CMC)): 175 % of control

Nc1cc(C(=O)Nc2ccc(CCNC3=NCCN3)cc2)ccc1C(=O)Nc1ccc(CCNC2=NCCN2)cc1
T/C (dose: 0.26 mg/kg/injection, schedule: Q01DX001 (ip), vehicle: water): 103 % of control
T/C (dose: 0.4 mg/kg/injection, schedule: Q01DX001 (ip), vehicle: water): 101 % of control
T/C (dose: 0.6 mg/kg/injection, schedule: Q01DX001 (ip), vehicle: water): 103 % of control
T/C (dose: 0.93 mg/kg/injection, schedule: Q01DX001 (ip), vehicle: water): 101 % of control
T/C (dose: 0.93 mg/kg/injection, schedule: Q01DX015 (ip), vehicle: water): 101 % of control
T/C (dose: 1.87 mg/kg/injection, schedule: Q01DX015 (ip), vehicle: water): 119 % of control
T/C (dose: 3.75 mg/kg/injection, schedule: Q01DX015 (ip), vehicle: water): 156 % of control
T/C (dose: 4.8 mg/kg/injection, schedule: Q01DX Z (oral), vehicle: water): 109 % of control
T/C (dose: 7.5 mg/kg/injection, schedule: Q01DX015 (ip), vehicle: water): 216 % of control
T/C (dose: 7.5 mg/kg/injection, schedule: Q01DX Z (ip), vehicle: water): 265 % of control
T/C (dose: 7.5 mg/kg/injection, schedule: Q01DX Z (oral), vehicle: water): 113 % of control
T/C (dose: 11.0 mg/kg/injection, schedule: Q01DX Z (oral), vehicle: water): 111 % of control
T/C (dose: 15.0 mg/kg/injection, schedule: Q01DX015 (ip), vehicle: water): 97 % of control
T/C (dose: 16.0 mg/kg/injection, schedule: Q01DX Z (oral), vehicle: water): 104 % of control and 119 % of control
T/C (dose: 23.0 mg/kg/injection, schedule: Q01DX Z (oral), vehicle: water): 104 % of control
T/C (dose: 35.0 mg/kg/injection, schedule: Q01DX Z (oral), vehicle: water): 102 % of control
T/C (dose: 55.0 mg/kg/injection, schedule: Q01DX Z (oral), vehicle: water): 99 % of control and 115 % of control
T/C (dose: 85.0 mg/kg/injection, schedule: Q01DX Z (oral), vehicle: water): 114 % of control
T/C (dose: 125.0 mg/kg/injection, schedule: Q01DX Z (oral), vehicle: water): 118 % of control
T/C (dose: 190.0 mg/kg/injection, schedule: Q01DX Z (oral), vehicle: water): 104 % of control and 113 % of control

N#CC1c2ccccc2C=CN1C(=O)c1ccccc1 (stereo not given)
T/C (dose: 50.0 mg/kg/injection, schedule: Q01DX009 (ip), vehicle: saline with Tween-80): 95 % of control
T/C [10]: 92 % of control
T/C (dose: 100.0 mg/kg/injection, schedule: Q04DX003 (ip), vehicle: Klucel (hydroxypropylcellulose) (HPC)): 94 % of control
T/C [4]: 97 % of control
T/C [11]: 97 % of control
T/C [15]: 93 % of control
T/C [17]: 98 % of control
T/C [5]: 94 % of control
T/C [12]: 92 % of control
T/C [16]: 95 % of control
T/C [18]: 94 % of control
T/C [6]: 96 % of control

CC1CCC2(NC1)OC1CC3C4CC=C5CC(OC(=O)N(CCCl)CCCl)CCC5(C)C4CCC3(C)C1C2C (stereo not given)
T/C (dose: 100.0 mg/kg/injection, schedule: Q01DX001 (sc), vehicle: steriod suspending solution): 97 % of control
T/C (dose: 200.0 mg/kg/injection, schedule: Q01DX001 (sc), vehicle: steriod suspending solution): 123 % of control
T/C (dose: 400.0 mg/kg/injection, schedule: Q01DX001 (sc), vehicle: steriod suspending solution): 97 % of control
